In ChEMBL document CHEMBL1145699, “Bioactive Terpenoids from Octocorallia. 3. A New Eunicellin-Based Diterpenoid from the Soft Coral Cladiella sphaeroides” (J Nat Prod, 1997):

System: Artemia salina
Test: Toxicity against Artemia salina at 30 ppm
Assay type: organism-based
Conditions: in vivo; call rule not given here

`C=C1CC[C@H](C(C)C)[C@@H]2[C@H]1[C@@H]1CC(=C)[C@@H](O)CC[C@](C)(O)[C@H]2O1` [CLADIELLISIN] was tested. Which Activity did it give?
Its Activity is “Not Active”.
